For two molecules, IC50 results are on record in patent publication US6657060B2, “Pyrimidine derivatives” (Hoffman-La Roche Inc., priority 2000, dated 2003).

The assay addresses T1, recombinant mouse NPY5-receptor (mNPY5) (Mus musculus, UniProt O70342).
T1 construct: The full-length cDNA encoding the mouse NPY5 (mNPY5) receptor was amplified from mouse brain cDNA; expressed in transfected cells; membranes
T1 sequence (O70342 1-466): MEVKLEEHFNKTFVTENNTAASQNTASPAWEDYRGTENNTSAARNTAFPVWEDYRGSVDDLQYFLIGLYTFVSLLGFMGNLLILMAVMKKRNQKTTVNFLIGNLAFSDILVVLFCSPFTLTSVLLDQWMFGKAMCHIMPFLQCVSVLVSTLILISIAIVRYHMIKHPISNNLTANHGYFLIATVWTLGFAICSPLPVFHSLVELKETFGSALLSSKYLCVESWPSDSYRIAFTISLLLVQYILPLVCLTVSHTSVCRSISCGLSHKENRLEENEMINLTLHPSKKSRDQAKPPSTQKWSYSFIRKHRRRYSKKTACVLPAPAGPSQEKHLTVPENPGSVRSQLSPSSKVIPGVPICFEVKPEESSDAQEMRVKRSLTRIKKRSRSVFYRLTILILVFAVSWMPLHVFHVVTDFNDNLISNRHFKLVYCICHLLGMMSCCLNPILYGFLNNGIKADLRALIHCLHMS
The assay is described as follows: Radioligand competition binding. As to conditions: membranes of HEK293 cells expressing mNPY5; 100 pM [125I]labelled peptide YY (PYY); 1 h at 22° C. From the text: The full-length cDNA encoding the mouse NPY5 (mNPY5) receptor was amplified from mouse brain cDNA using specific primers, designed based on the published sequence, and Pfu DNA-Polymerase (Stratagene). The amplification product was subcloned into the mammalian expression vector pcDNA3 using Eco RI and XhoI restriction sites. Positive clones were sequenced and one clone, encoding the published sequence was selected for generation of stable cell clones.
Human embryonic kidney 293 (HEK293) cells were transfected with 10 μg mNPY5 DNA using the lipofectamine reagent (Gibco BRL) according to the manufacturer's instruction. Two days after transfection, geneticin selection (1 mg/ml) was initiated and several stable clones were isolated. One clone was further used for pharmacological characterization.
Human embryonic kidney 293 cells (HEK293), expressing recombinant mouse NPY5-receptor (mNPY5) were broken by three freeze/thawing cycles in hypotonic Tris buffer (5 mM, pH 7.4, 1 mM MgCl2), homogenized and centrifuged at 72,000×g for 15 min. The pellet was washed twice with 75 mM Tris buffer, pH 7.4, containing 25 mM MgCl2 and 250 mM sucrose, 0.1 mM phenylmethylsulfonylfluoride and 0.1 mM 1,10-pheneanthrolin, resuspended in the same buffer and stored in aliquots at −80° C. Protein was determined according to the method of Lowry using bovine serum albumine (BSA) as a standard. […]

The structures appear in SMILES notation.

Consider `Cc1cc(N2CCCC2)nc(/C=C/c2cccc(C#N)c2)n1` [Compound 20, (E)-3-[2-(4-methyl-6-pyrrolidin-1-yl-pyrimidin-2-yl)-vinyl]-benzonitrile], for which the 50% inhibitory concentration (IC50) worked out at 18 nM. With `Cc1cc(N2CCCC2)nc(/C=C/c2ccc(F)cc2F)n1` [Compound 43, (E)-2-[2-(2,4-difluoro-phenyl)-vinyl]-4-methyl-6-pyrrolidin-1-yl-pyrimidine] the figure was 30 nM.
